Reference: ChEMBL document CHEMBL4038286, “Synthesis of camphecene derivatives using click chemistry methodology and study of their antiviral activity” (Bioorg Med Chem Lett, 2017)

test system: Influenza A virus; experiment: Antiviral activity against rimantadine-resistant Influenza A virus (A/Puerto Rico/8/34(H1N1)) infected in MDCK cells; type: functional, A/Puerto Rico/8/1934(H1N1); settings: read-out: ED50 (the source's name)

| Structure (SMILES) | EC50 [µM] |
| --- | --- |
| CCOP(=O)(CCCCn1cc(COCC/N=C2\C[C@H]3CC[C@]2(C)C3(C)C)nn1)OCC | 299 |
| CNCc1cn(CC/N=C2\C[C@H]3CC[C@]2(C)C3(C)C)nn1 | > 100 |
| CC1(C)[C@@H]2CC[C@@]1(C)/C(=N/CCOCc1cn(CCO)nn1)C2 | 50 |
| CC(N)[C@@H]1C[C@H]2CC[C@]1(C)C2 (stereo not given in full) | 181 |
| CC(C)(O)Cc1cn(CC/N=C2\C[C@H]3CC[C@]2(C)C3(C)C)nn1 | 32 |
| CC1(C)[C@@H]2CC[C@@]1(C)/C(=N/CCOCc1cn(-c3ccccc3)nn1)C2 | 63 |
| CCOC(=O)C(C)(Cc1cn(CC/N=C2\C[C@H]3CC[C@]2(C)C3(C)C)nn1)P(=O)(OCC)OCC (stereo not given in full) | 314 |
| C#CCOCC/N=C1\C[C@H]2CC[C@]1(C)C2(C)C | > 429 |
| CC1(C)[C@@H]2CC[C@@]1(C)/C(=N/CCn1cc([Si](C)(C)C)nn1)C2 | > 31 |
| CC1(C)[C@@H]2CC[C@@]1(C)/C(=N\CCOCc1cn(CC/N=C3\C[C@H]4CC[C@]3(C)C4(C)C)nn1)C2 | 98 |
| CCCCc1cn(CC/N=C2\C[C@H]3CC[C@]2(C)C3(C)C)nn1 | 56 |
| CC1(C)[C@@H]2CC[C@@]1(C)/C(=N/CCn1cc(CCO)nn1)C2 | 55 |
| CC(C)(C)OC(=O)Cn1cc(COCC/N=C2\C[C@H]3CC[C@]2(C)C3(C)C)nn1 | 24 |
| COCCNCCc1cn(CC/N=C2\C[C@H]3CC[C@]2(C)C3(C)C)nn1 | 25 |
| CC1(C)[C@@H]2CC[C@@]1(C)/C(=N/CCn1cc(CCN3CCOCC3)nn1)C2 | 45 |
| CCOP(=O)(OCC)C(Cc1cn(CC/N=C2\C[C@H]3CC[C@]2(C)C3(C)C)nn1)P(=O)(OCC)OCC | > 58.4 |
| CC1(C)[C@@H]2CC[C@@]1(C)/C(=N/CCN=[N+]=[N-])C2 | 455 |
| CC1(C)[C@@H]2CC[C@@]1(C)/C(=N/CCn1cc(CO)nn1)C2 | 616 |
| NC12CC3CC(CC(C3)C1)C2 [AMANTADINE] | 60 |
| CC(N)C12CC3CC(CC(C3)C1)C2 (stereo not given) [RIMANTADINE] | 72 |
